# Reference: article PMC12717099, “Peptidoglycan recruitment by a penicillin binding protein” (Nature Communications, 2025)
# Experiments:
# Type in all cases: binding, Enterococcus faecium
# [1] = tested on: PBP5:PenG complex (1:8); experiment: NMR CSP titration of stem peptides into PenG-saturated PBP5; conditions: PBP5:PenG 1:8, then SP titration
# Description: Data was processed using Topspin 4.1.4 (Bruker) and analyzed using NMRFAM-SPARKY 1.3 and Poky (build number 20240829)[20],[21]. The sequence-specific backbone assignment of PBP5 is publicly available at BMRBID 51690.
# SPs (SP1 to SP7) were titrated into 0.5 mM (^2H,^15N)-labeled and 0.1 mM (^2H,^15N)/^13C ILV labeled PBP5 at molar ratios of 0:1, 5:1, 10:1, 20:1, 40:1, 60:1, and 80:1 (stem peptide/SP:PBP5; molar ratios). 2D [^1H,^15N] TROSY or 2D [^1H,^13C] HMQC spectra were recorded for each titration point. SPs were solubilized in NMR buffer. Chemical shift perturbations (Δδ) between PBP5 and SP bound PBP5 spectra were calculated using Eq. 1,1 Δδppm=ΔδH^2+ΔδX/Y^2 where, X is ^15N or ^13C and Y is the constant i.e., 10 for ^15N and 4 for ^13C.
# Residues with significant CSPs were identified by calculating the standard deviation of all CSPs (σ), then excluding any CSPs larger than average+2σ, recalculating σ as a new corrected σ0, and then repetitively removing CSPs above 2σ0 until no additional CSPs can be removed. CSPs above ≥2σ2 was the statistical threshold for ^1H/^15N backbone CSP analysis and ≥2xσ1 for ^1H/^13C methyl ILV data for the interaction of SP1 with PBP5. The same threshold values were used for all other peptides to allow for direct comparison with the SP1/PBP5 interaction. […]
# [2] = tested on: PBP5:PenG complex; experiment: 1D 1H STD NMR of stem peptides with PBP5:PenG; conditions: for STD amplification factor: PenG-saturated PBP5, 2 s saturation
# Text: (§1) Total saturation time for STD measurements was 2 s.
# (§2) Overlapped peaks were completely excluded from the analysis.
# [3] = tested on: PBP5; experiment: 1D 1H STD NMR of stem peptides with PBP5; conditions: for STD % to SP1: normalised to highest SP1:PBP5 value; for STD amplification factor: protein:peptide 1:100, 2 s saturation, 308 K
# Text: as §1, §2
substance,measurement,setting,value
D-Lac-L-Ala-D-iGln-L-Lys(D-iAsn)-D-Ala-D-Ala [SP1],"CSPs in presence vs absence of penicillin, in words",[1],nearly identical
same,"STD amplification factor, ref to SP1 (fraction)","[2]; 1H DA4α,LA1α",0.3134
same,"STD, ref to SP1 (percent)","[2]; 1H DA4α,LA1α",31.3366
same,STD amplification factor,"[2]; 1H DA4α,LA1α",8.432
same,"STD amplification factor, ref to SP1 (fraction)","[2]; 1H DA4β, DLacβ",0.2401
same,"STD, ref to SP1 (percent)","[2]; 1H DA4β, DLacβ",24.0089
same,STD amplification factor,"[2]; 1H DA4β, DLacβ",6.4604
same,"STD amplification factor, ref to SP1 (fraction)",[2]; 1H DA5α,0.5713
same,"STD, ref to SP1 (percent)",[2]; 1H DA5α,57.1289
same,STD amplification factor,[2]; 1H DA5α,15.3725
same,"STD amplification factor, ref to SP1 (fraction)",[2]; 1H DA5β,0.2936
same,"STD, ref to SP1 (percent)",[2]; 1H DA5β,29.3585
same,STD amplification factor,[2]; 1H DA5β,7.9
same,"STD amplification factor, ref to SP1 (fraction)","[2]; 1H DQ2α,Dlacα,iNα",0.2074
same,"STD, ref to SP1 (percent)","[2]; 1H DQ2α,Dlacα,iNα",20.7354
same,STD amplification factor,"[2]; 1H DQ2α,Dlacα,iNα",5.58
same,"STD amplification factor, ref to SP1 (fraction)",[2]; 1H DQ2β (first listed),0.7176
same,"STD, ref to SP1 (percent)",[2]; 1H DQ2β (first listed),71.7627
same,STD amplification factor,[2]; 1H DQ2β (first listed),19.3102
same,"STD amplification factor, ref to SP1 (fraction)",[2]; 1H DQ2β (second listed),0.813
same,"STD, ref to SP1 (percent)",[2]; 1H DQ2β (second listed),81.3002
same,STD amplification factor,[2]; 1H DQ2β (second listed),21.8766
same,"STD amplification factor, ref to SP1 (fraction)",[2]; 1H DQ2γ,0.3426
same,"STD, ref to SP1 (percent)",[2]; 1H DQ2γ,34.2606
same,STD amplification factor,[2]; 1H DQ2γ,9.219
same,"STD amplification factor, ref to SP1 (fraction)",[2]; 1H K3α,0.4115
same,"STD, ref to SP1 (percent)",[2]; 1H K3α,41.1521
same,STD amplification factor,[2]; 1H K3α,11.0734
same,"STD amplification factor, ref to SP1 (fraction)",[2]; 1H K3β,0.9267
same,"STD, ref to SP1 (percent)",[2]; 1H K3β,92.6679
same,STD amplification factor,[2]; 1H K3β,24.9355
same,"STD amplification factor, ref to SP1 (fraction)",[2]; 1H K3δ,0.5468
same,"STD, ref to SP1 (percent)",[2]; 1H K3δ,54.6801
same,STD amplification factor,[2]; 1H K3δ,14.7135
same,"STD amplification factor, ref to SP1 (fraction)",[2]; 1H K3ε,0.1626
same,"STD, ref to SP1 (percent)",[2]; 1H K3ε,16.2603
same,STD amplification factor,[2]; 1H K3ε,4.3754
same,"STD amplification factor, ref to SP1 (fraction)",[2]; 1H LA1β,0.2447
same,"STD, ref to SP1 (percent)",[2]; 1H LA1β,24.4674
same,STD amplification factor,[2]; 1H LA1β,6.584
same,"STD amplification factor, ref to SP1 (fraction)",[2]; 1H iNβ,0.3143
same,"STD, ref to SP1 (percent)",[2]; 1H iNβ,31.4336
same,STD amplification factor,[2]; 1H iNβ,8.458
same,STD amplification factor as fraction of highest SP1:PBP5 value,"[3]; 1H DA4α,LA1α",0.3688
same,STD % to SP1,"[3]; 1H DA4α,LA1α",36.8831%
same,STD amplification factor,"[3]; 1H DA4α,LA1α",9.925
same,STD amplification factor as fraction of highest SP1:PBP5 value,"[3]; 1H DA4β, DLacβ",0.2569
same,STD % to SP1,"[3]; 1H DA4β, DLacβ",25.6923%
same,STD amplification factor,"[3]; 1H DA4β, DLacβ",6.913
same,STD amplification factor as fraction of highest SP1:PBP5 value,[3]; 1H DA5α,0.6484
same,STD % to SP1,[3]; 1H DA5α,64.837%
same,STD amplification factor,[3]; 1H DA5α,17.4466
same,STD amplification factor as fraction of highest SP1:PBP5 value,[3]; 1H DA5β,0.3281
same,STD % to SP1,[3]; 1H DA5β,32.8081%
same,STD amplification factor,[3]; 1H DA5β,8.828
same,STD amplification factor as fraction of highest SP1:PBP5 value,"[3]; 1H DQ2α,Dlacα,iNα",0.2333
same,STD % to SP1,"[3]; 1H DQ2α,Dlacα,iNα",23.3322%
same,STD amplification factor,"[3]; 1H DQ2α,Dlacα,iNα",6.278
same,STD amplification factor as fraction of highest SP1:PBP5 value,[3]; 1H DQ2β (first listed),0.816
same,STD % to SP1,[3]; 1H DQ2β (first listed),81.5959%
same,STD amplification factor,[3]; 1H DQ2β (first listed),21.9561
same,STD amplification factor as fraction of highest SP1:PBP5 value,[3]; 1H DQ2β (second listed),0.8819
same,STD % to SP1,[3]; 1H DQ2β (second listed),88.186%
same,STD amplification factor,[3]; 1H DQ2β (second listed),23.7294
same,STD amplification factor as fraction of highest SP1:PBP5 value,[3]; 1H DQ2γ,0.3832
same,STD % to SP1,[3]; 1H DQ2γ,38.3191%
same,STD amplification factor,[3]; 1H DQ2γ,10.3111
same,STD amplification factor as fraction of highest SP1:PBP5 value,[3]; 1H K3α,0.5115
same,STD % to SP1,[3]; 1H K3α,51.1543%
same,STD amplification factor,[3]; 1H K3α,13.7648
same,STD amplification factor as fraction of highest SP1:PBP5 value,[3]; 1H K3β,1
same,STD % to SP1,[3]; 1H K3β,100%
same,STD amplification factor,[3]; 1H K3β,26.9084
same,STD amplification factor as fraction of highest SP1:PBP5 value,[3]; 1H K3δ,0.7475
same,STD % to SP1,[3]; 1H K3δ,74.7509%
same,STD amplification factor,[3]; 1H K3δ,20.1143
same,STD amplification factor as fraction of highest SP1:PBP5 value,[3]; 1H K3ε,0.2891
same,STD % to SP1,[3]; 1H K3ε,28.9129%
same,STD amplification factor,[3]; 1H K3ε,7.78
same,STD amplification factor as fraction of highest SP1:PBP5 value,[3]; 1H LA1β,0.276
same,STD % to SP1,[3]; 1H LA1β,27.6026%
same,STD amplification factor,[3]; 1H LA1β,7.427
same,STD amplification factor as fraction of highest SP1:PBP5 value,[3]; 1H iNβ,0.3449
same,STD % to SP1,[3]; 1H iNβ,34.4916%
same,STD amplification factor,[3]; 1H iNβ,9.281
